Data reported in patent publication US8765779B2, “Tricyclic derivatives and their pharmaceutical use and compositions” (Cephalon, Inc., priority 2009, dated 2014).
Counter-ions that a name gives are not always drawn.

Biological target: T1, human 5-HT6 receptor (Homo sapiens, UniProt P50406)
T1 construct: host or cells: CHO-K1 cells, stably transfected; membranes prepared in house
Experiment: Human 5-HT6 Receptor Binding Assay ([3H]LSD displacement, scintillation beads)
Conditions: membranes of CHO-K1 cells with recombinant human 5-HT6, 4 nM [3H]LSD; Table 1, class symbols; read-out: h5-HT6 (Ki)

T1 sequence (P50406 whole entry): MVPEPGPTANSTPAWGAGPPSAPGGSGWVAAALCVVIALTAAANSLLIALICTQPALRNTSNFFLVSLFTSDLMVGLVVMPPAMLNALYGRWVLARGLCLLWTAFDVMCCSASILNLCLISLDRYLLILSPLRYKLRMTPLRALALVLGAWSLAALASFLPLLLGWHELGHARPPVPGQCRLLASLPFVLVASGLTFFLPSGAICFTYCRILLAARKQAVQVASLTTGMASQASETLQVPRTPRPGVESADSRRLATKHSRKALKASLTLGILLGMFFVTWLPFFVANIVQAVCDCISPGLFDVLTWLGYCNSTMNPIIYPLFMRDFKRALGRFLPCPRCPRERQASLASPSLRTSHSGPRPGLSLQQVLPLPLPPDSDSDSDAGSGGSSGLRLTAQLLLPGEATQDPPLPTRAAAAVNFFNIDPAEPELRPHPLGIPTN

For O=S(=O)(c1ccc(C(F)(F)F)cc1)c1ccc2c(c1)OC1CNCCC21 (stereo not shown) [Example 151], which Ki is on record?
The Ki was 500 to 1000 nM.

For O=S(=O)(Nc1ccccc1)c1ccc2c(c1)C1CCNCC1O2 (stereo not shown) [Example 848], which Ki is on record?
Its Ki is greater than 1000 nM.

O=S(=O)(c1ccc(Cl)c(C(F)(F)F)c1)c1ccc2oc3c(c2c1)CCNC3 [Example 257] was tested. Which Ki did it give?
The Ki was less than 500 nM.

O=S(=O)(c1ccc2oc3c(c2c1)CCNC3)c1ccccn1 [Example 353] was tested. Which Ki did it give?
Its Ki is less than 500 nM.

O=S(=O)(c1cccc(Cl)c1)c1ccc2c3c(oc2c1)CN(CCCO)CC3 [Example 601] was tested. Which Ki did it give?
The Ki was less than 500 nM.

O=S(=O)(c1ccc(F)cc1)c1ccc2c3c(oc2c1)CNCC3 [Example 213] was tested. Which Ki did it give?
The Ki was less than 500 nM.

Which Ki does the source give for COc1ccc(S(=O)(=O)c2ccc3oc4c(c3c2)CCNC4)cc1OC [Example 242] here?
Its Ki is greater than 1000 nM.

How did the Ki turn out when O=S(=O)(Oc1ccc2c(c1)OC1CNCCC21)c1ccc(Cl)c(Cl)c1 (stereo not shown) [Example 676] was run?
Its Ki is less than 500 nM.

With O=S(=O)(c1cccc(OCC2CCOCC2)c1)c1ccc2c(c1)OC1CNCCC21 (stereo not shown) [Example 570, 7-{[3-(tetrahydro-2H-pyran-4-ylmethoxy)phenyl]sulfonyl}-1,2,3,4,4a,9a-hexahydro[1]benzofuro[2,3-c]pyridine] as the compound, how does the Ki read?
Its Ki is less than 500 nM.

For CCCCOc1cc(OC)cc(S(=O)(=O)c2ccc3c(c2)OC2CNCCC32)c1 (stereo not shown) [Example 587], which Ki is on record?
Its Ki is less than 500 nM.

For O=S(=O)(Oc1ccc2c(c1)OC1CN(Cc3ccccc3)CCC21)c1ccc(Cl)cc1 (stereo not shown) [Example 803], which Ki is on record?
Its Ki is greater than 1000 nM.

For O=S(=O)(c1cccc(F)c1)c1ccc2c3c(oc2c1)C1(CCOC1)NCC3 (single isomer, unassigned) [Example 52, 7-[(3-fluorophenyl)sulfonyl]-3,4,4′,5′-tetrahydro-2H-spiro[1-benzofuro[2,3-c]pyridine-1,3′-furan]], which Ki is on record?
Its Ki is less than 500 nM.

How did the Ki turn out when O=S(=O)(c1ccc2oc3c(c2c1)CCNC3)c1ccccc1Cl [Example 276] was run?
Its Ki is less than 500 nM.

Which Ki does the source give for O=S(=O)(Oc1ccc2c(c1)C1CCNCC1O2)c1c(Cl)nc2sccn12 (stereo not shown) [Example 698] here?
Its Ki is less than 500 nM.

COc1cccc(NS(=O)(=O)c2ccc3c(c2)C2CCNCC2O3)c1 (stereo not shown) [Example 850] was tested. Which Ki did it give?
The Ki was greater than 1000 nM.

O=S(=O)(c1ccc(F)c(Cl)c1)c1ccc2oc3c(c2c1)CCNC3 [Example 258] was tested. Which Ki did it give?
Its Ki is less than 500 nM.

For Cc1c(OCC2CCOCC2)cccc1S(=O)(=O)c1ccc2c(c1)OC1CNCCC21 (stereo not shown) [Example 582], which Ki is on record?
Its Ki is less than 500 nM.

For Cc1ccc(S(=O)(=O)Oc2ccc3c(c2)C2CCNCC2O3)cc1F (stereo not shown) [Example 709], which Ki is on record?
The Ki was 500 to 1000 nM.

COc1cncc(S(=O)(=O)c2ccc3c4c(oc3c2)CNCC4(C)C)c1 [Example 451] was tested. Which Ki did it give?
Its Ki is less than 500 nM.

O=S(=O)(c1ccc2c3c(oc2c1)CNCC3)c1c(F)c(F)cc(F)c1F [Example 225] was tested. Which Ki did it give?
Its Ki is less than 500 nM.

With O=S(=O)(Oc1ccc2c(c1)C1CCNCC1O2)c1ccc(OC(F)(F)F)cc1 (stereo not shown) [Example 744] as the compound, how does the Ki read?
Its Ki is greater than 1000 nM.

With O=S(=O)(Oc1ccc2c(c1)C1CCNCC1O2)c1ccc(C(F)(F)F)cc1 (stereo not shown) [Example 735] as the compound, how does the Ki read?
The Ki was greater than 1000 nM.

With CC1OCCC12NCCc1c2oc2cc(S(=O)(=O)c3cccc(F)c3)ccc12 (single isomer, unassigned) [Example 60, 7-[(3-Fluorophenyl)sulfonyl]-2′-methyl-3,4,4′,5′-tetrahydro-2H-spiro[1-benzofuro[2,3-c]pyridine-1,3′-furan]] as the compound, how does the Ki read?
Its Ki is less than 500 nM.

Which Ki does the source give for O=S(=O)(c1cc(F)cc(Cl)c1)c1ccc2c(c1)OC1CNCCC21 (stereo not shown) [Example 163] here?
The Ki was less than 500 nM.

O=S(=O)(c1cccc(Cl)c1)c1ccc2c3c(oc2c1)C(C1CC1)NCC3 (stereo not shown) [Example 503] was tested. Which Ki did it give?
Its Ki is less than 500 nM.

Which Ki does the source give for CCC1(C)NCCc2c1oc1cc(S(=O)(=O)c3cccc(F)c3)ccc21 (racemic) [Example 27, 1-ethyl-7-[(3-fluorophenyl)sulfonyl]-1-methyl-1,2,3,4-tetrahydro[1]benzofuro[2,3-c]pyridine] here?
The Ki was less than 500 nM.

Which Ki does the source give for O=S(=O)(c1ccccc1)c1ccc2c(c1)OC1CN(C3CCCCC3)CCC21 (stereo not shown) [Example 610] here?
The Ki was 500 to 1000 nM.

For CN(C)C(=O)c1cccc(S(=O)(=O)c2ccc3c4c(oc3c2)CNCC4)c1 [Example 474, N,N-Dimethyl-3-(1,2,3,4-tetrahydro[1]benzofuro[2,3-c]pyridin-7-ylsulfonyl)benzamide hydrochloride], which Ki is on record?
The Ki was greater than 1000 nM.

CC(=O)NCCC1NCCc2c1oc1ccc(S(=O)(=O)c3cccc(F)c3)cc21 (stereo not shown) [Example 532, N-(2-{6-[(3-fluorophenyl)sulfonyl]-1,2,3,4-tetrahydro[1]benzofuro[2,3-c]pyridin-1-yl}ethyl)acetamide] was tested. Which Ki did it give?
Its Ki is 500 to 1000 nM.

For O=S(=O)(Cc1ccc(C(F)(F)F)cc1)Oc1ccc2c(c1)C1CCNCC1O2 (stereo not shown) [Example 751], which Ki is on record?
Its Ki is greater than 1000 nM.

Which Ki does the source give for O=S(=O)(c1cccc(Cl)c1)c1ccc2c3c(oc2c1)C(CCBr)NCC3 (stereo not shown) [Example 501, 1-(2-bromoethyl)-7-[(3-chlorophenyl)sulfonyl]-1,2,3,4-tetrahydro[1]benzofuro[2,3-c]pyridine] here?
Its Ki is less than 500 nM.

CC(=O)NCCC1NCCc2c1oc1cc(S(=O)(=O)c3cccc(Cl)c3)ccc21 (racemic) [Example 540, N-(2-{7-[(3-chlorophenyl)sulfonyl]-1,2,3,4-tetrahydro[1]benzofuro[2,3-c]pyridin-1-yl}ethyl)acetamide] was tested. Which Ki did it give?
Its Ki is less than 500 nM.

For O=S(=O)(Oc1ccc2c(c1)OC1CNCCC21)c1ccc(-c2cnco2)cc1 (stereo not shown) [Example 672], which Ki is on record?
Its Ki is less than 500 nM.

How did the Ki turn out when O=S(=O)(Nc1cccc(F)c1F)c1ccc2c(c1)C1CCNCC1O2 (stereo not shown) [Example 842] was run?
The Ki was greater than 1000 nM.

Which Ki does the source give for CC(=O)NCCC1NCCc2c1oc1cc(S(=O)(=O)c3cccc(F)c3)ccc21 (racemic) [Example 536, N-(2-{7-[(3-fluorophenyl)sulfonyl]-1,2,3,4-tetrahydro[1]benzofuro[2,3-c]pyridin-1-yl}ethyl)acetamide] here?
Its Ki is less than 500 nM.

With O=S(=O)(c1cccc(F)c1)c1ccc2c3c(oc2c1)C(C(F)(F)F)NCC3 (stereo not shown) [Example 510] as the compound, how does the Ki read?
The Ki was less than 500 nM.

NC(=O)COc1cccc(S(=O)(=O)c2ccc3c(c2)OC2CNCCC32)c1 (stereo not shown) [Example 563] was tested. Which Ki did it give?
Its Ki is greater than 1000 nM.

O=S(=O)(c1cccc(F)c1)c1ccc2c3c([nH]c2c1)C1(CCCOC1)NCC3 (stereo not shown) [Example 317] was tested. Which Ki did it give?
Its Ki is less than 500 nM.

With CC(C)CN1CCc2c(oc3cc(S(=O)(=O)c4cccc(Cl)c4)ccc23)C1 [Example 600] as the compound, how does the Ki read?
Its Ki is less than 500 nM.

How did the Ki turn out when CC(C)S(=O)(=O)c1ccc2oc3c(c2c1)CCNC3 [Example 281] was run?
The Ki was greater than 1000 nM.

For O=S(=O)(c1cccc(F)c1)c1ccc2c3c(oc2c1)C1(CCCC1)NCC3 [Example 28, 7-[(3-fluorophenyl)sulfonyl]-3,4-dihydro-2H-spiro[1-benzofuro[2,3-c]pyridine-1,1′-cyclopentane]], which Ki is on record?
Its Ki is less than 500 nM.

How did the Ki turn out when CC12CCNCC1Oc1ccc(S(=O)(=O)c3ccncc3)cc12 (racemic) [Example 13, 4a-methyl-6-(pyridin-4-ylsulfonyl)-1,2,3,4,4a,9a-hexahydro[1]benzofuro[2,3-c]pyridine] was run?
Its Ki is greater than 1000 nM.

With O=S(=O)(NCc1ccc(Cl)cc1)c1ccc2c(c1)C1CCNCC1O2 (stereo not shown) [Example 854] as the compound, how does the Ki read?
Its Ki is greater than 1000 nM.

How did the Ki turn out when O=S(=O)(Oc1ccc2c(c1)C1CCNCC1O2)c1csc2ccccc12 (stereo not shown) [Example 726] was run?
Its Ki is less than 500 nM.

For O=S(=O)(c1ccccc1)c1ccc2c(c1)OC1CN(Cc3ccccc3)CCC21 (stereo not shown) [Example 611], which Ki is on record?
The Ki was less than 500 nM.

For O=S(=O)(c1ccc(OC(F)(F)F)cc1)c1ccc2c3c(oc2c1)CNCC3 [Example 227, 7-{[4-(trifluoromethoxy)phenyl]sulfo-nyl}-1,2,3,4-tetrahydro[1]benzofuro[2,3-c]pyridine], which Ki is on record?
Its Ki is less than 500 nM.

How did the Ki turn out when Cc1noc(C)c1S(=O)(=O)Oc1ccc2c(c1)OC1CNCCC21 (stereo not shown) [Example 646] was run?
The Ki was 500 to 1000 nM.

For COc1cncc(S(=O)(=O)c2ccc3c4c(oc3c2)C2(CCOC2)NCC4(C)C)c1 (stereo not shown) [Example 454], which Ki is on record?
Its Ki is less than 500 nM.

Which Ki does the source give for O=S(=O)(c1cccc(Cl)c1)c1ccc2c3c([nH]c2c1)C1(CCCOC1)NCC3 (single isomer, unassigned) [Example 316] here?
The Ki was less than 500 nM.

With CC(=O)NCC1NCCc2c1oc1ccc(S(=O)(=O)c3cccc(F)c3)cc21 (stereo not shown) [Example 531, N-({6-[(3-fluorophenyl)sulfonyl]-1,2,3,4-tetrahydro[1]benzofuro[2,3-c]pyridin-1-yl}methyl)acetamide] as the compound, how does the Ki read?
The Ki was less than 500 nM.

With CC(C)Oc1cccc(S(=O)(=O)c2ccc3oc4c(c3c2)CCNC4)c1 [Example 267] as the compound, how does the Ki read?
The Ki was less than 500 nM.

How did the Ki turn out when CC12CCNCC1Oc1cc(S(=O)(=O)c3cccc4c3OC(F)(F)O4)ccc12 (stereo not shown) [Example 460] was run?
Its Ki is less than 500 nM.

How did the Ki turn out when O=S(=O)(Oc1ccc2c(c1)C1CCNCC1O2)c1cccc(Cl)c1Cl (stereo not shown) [Example 740] was run?
Its Ki is less than 500 nM.

With CC1(C)CNCc2oc3cc(S(=O)(=O)c4cc(F)cc(F)c4)ccc3c21 [Example 287] as the compound, how does the Ki read?
The Ki was less than 500 nM.

O=S(=O)(c1ccc2c(c1)OC1CNCCC21)C1CCCCC1 (stereo not shown) [Example 154] was tested. Which Ki did it give?
Its Ki is greater than 1000 nM.

How did the Ki turn out when COc1ccc(S(=O)(=O)Oc2ccc3c(c2)C2(C)CCNCC2O3)cc1 (stereo not shown) [Example 760] was run?
Its Ki is greater than 1000 nM.

For COc1cc(OCC2CCOCC2)cc(S(=O)(=O)c2ccc3c(c2)OC2CNCCC32)c1 (stereo not shown) [Example 584], which Ki is on record?
Its Ki is less than 500 nM.

How did the Ki turn out when [O-][S+](c1ccc2oc3c(c2c1)CCNC3)c1ccccc1-c1ccccc1 (stereo not shown) [Example 279] was run?
Its Ki is less than 500 nM.

With O=S(=O)(Oc1ccc2c(c1)C1CCNCC1O2)c1cccc2cnccc12 (stereo not shown) [Example 745] as the compound, how does the Ki read?
The Ki was greater than 1000 nM.

How did the Ki turn out when Cc1ccc(S(=O)(=O)c2ccc3c4c(oc3c2)CNCC4)cc1 [Example 204] was run?
Its Ki is less than 500 nM.

For O=S(=O)(Oc1ccc2c(c1)C1CCNCC1O2)c1cc2ccccc2o1 (stereo not shown) [Example 713], which Ki is on record?
The Ki was less than 500 nM.

Which Ki does the source give for O=S(=O)(Oc1ccc2c(c1)OC1CNCCC21)c1cc2ccccc2s1 (stereo not shown) [Example 664] here?
Its Ki is less than 500 nM.

With O=S(=O)(c1ccc2c3c(oc2c1)[C@@]1(CCOC1)NCC3)c1cc(F)ccc1F (single isomer, unassigned) [Example 109] as the compound, how does the Ki read?
The Ki was less than 500 nM.

O=S(=O)(c1ccc2c(c1)OC1CNCCC21)c1cccnc1F (stereo not shown) [Example 398] was tested. Which Ki did it give?
Its Ki is less than 500 nM.

Which Ki does the source give for CC12CCN(C3CCCC3)CC1Oc1ccc(OS(=O)(=O)Cc3ccccc3)cc12 (stereo not shown) [Example 806] here?
The Ki was greater than 1000 nM.

For CC12CCNCC1Oc1ccc(OS(=O)(=O)c3csc4ccccc34)cc12 (stereo not shown) [Example 771], which Ki is on record?
The Ki was less than 500 nM.

How did the Ki turn out when O=S(=O)(c1ccccc1)c1ccc2c3c(oc2c1)C1(CCCOC1)NCC3 (single isomer, unassigned) [Example 544, 7-(Phenylsulfonyl)-3,4,5′,6′-tetrahydro-2H,4′H-spiro[1-benzofuro[2,3-c]pyridine-1,3′-pyran]hydrochloride] was run?
The Ki was 500 to 1000 nM.
